{
  "source": "paper PMC8258280",
  "about": "(Virologica Sinica, 2021)",
  "origin": "cited, not measured here",
  "test_system": "SARS-CoV 3CL^pro",
  "conditions": "read-out: IC50 against SARS-CoV 3CL^pro",
  "data": [
    {"smiles": "O=c1cc(-c2ccc(O)c(-c3c(O)cc(O)c4c(=O)cc(-c5ccc(O)cc5)oc34)c2)oc2cc(O)cc(O)c12", "note": "[amentoflavone]", "values": [
      {"measurement": "IC50", "result": 8.3, "unit": "µM"}
    ]}
  ]
}
